From patent publication US4010268A, “Derivatives of hexahydrodibenzofuran-3-one, their preparation and use in pharmaceutical compositions” (Roussel-UCLAF, priority 1974, dated 1977)
Structures can show the parent of a compound that is named as a salt.

Columns and labels:
[1] = tested on: cough experimentally induced by electric stimulation of the vagus nerve in the guinea pig; assay: Antitussive activity: cough induced by electric stimulation of the vagus nerve; assay type: in vivo; conditions: for inhibition in vivo at 100 mg/kg / ED50: Cavia porcellus; for inhibition in vivo at 100 mg/kg: 100 mg/kg oral, stimulus 20 and 40 minutes after administration, 6 negative responses = 100%, groups of 6 guinea pigs, read-out: Percentage cough inhibition; for ED50: guinea pig, oral, vagus nerve stimulation, read-out: ED50 (dose which reduces the number of coughs by 50%); for antitussive activity (in words): conclusion from Table 3 results
Procedure: The test consists of stimulating the vagus nerve of the guinea pig and repeating the stimulus 20 and 40 minutes after oral administration of 100 mg/kg of the product under test. 6 Negative responses (3 after 20 minutes and 3 after 40 minutes) represent a cough inhibition of 100%. The test was carried out in groups of 6 animals against groups of control animals (undosed).
In addition, for certain compounds the ED50 was also determined, i.e. that dose which reduces the number of coughs by 50%.

Acute toxicity, oral = conditions: guinea pig, in vivo; guinea pigs, increasing oral dose
Procedure: The acute toxicity of some of compounds of the invention was determined on guinea pigs which had received an increasing oral dose of the compound.

SMILES | inhibition in vivo at 100 mg/kg [1] [%] | ED50 [1] [mg/kg] | antitussive activity (in words) [1] | LD50 (Acute toxicity, oral) [mg/kg]
Cc1ccc2c(c1)[C@@]1(C)CCC(=O)[C@@H](NC(=O)CCN3CCN(C)CC3)[C@H]1O2 (relative stereo) [Example 1, 8,9bβ-dimethyl-1,2,3,4,4aβ,9b-hexahydro-4α-[3-(4-methylpiperazin-1-yl)-propionamido]-dibenzofuran-3-one dihydrochloride] | 100 | 32.5 | important antitussive activity | 1480
Cc1ccc2c(c1)[C@@]1(C)CCC(=O)[C@@H](NC(=O)CN3CCN(C)CC3)[C@H]1O2 (relative stereo) [Example 4] | 43 |  |  | > 800
Cc1ccc2c(c1)[C@@]1(C)CCC(=O)[C@@H](NC(=O)CN3CCCC3)[C@H]1O2 (relative stereo) [Example 7] | 17 |  |  | ~800
CCN(CC(=O)N[C@@H]1C(=O)CC[C@]2(C)c3cc(C)ccc3O[C@H]12)Cc1ccccc1 (relative stereo) [Example 8] |  |  |  | > 800
Cc1ccc2c(c1)[C@@]1(C)CCC(=O)[C@@H](NC(=O)CCN3CCOCC3)[C@H]1O2 (relative stereo) [Example 9] | 39 |  |  | 
Cc1ccc2c(c1)[C@@]1(C)CCC(=O)[C@@H](NC(=O)CCN(C)C)[C@H]1O2 (relative stereo) [Example 10, 8,9bβ-dimethyl-1,2,3,4,4aβ,9b-hexahydro-4α-[3-N,N-dimethylamino-propionamido]-dibenzofuran-3-one] | 89 |  | important antitussive activity | 500 to 1000
Cc1ccc2c(c1)[C@@]1(C)CCC(=O)[C@@H](NC(=O)CCN3CCCC3)[C@H]1O2 (relative stereo) [Example 11] | 44 |  |  | ~600
Cc1ccc2c(c1)[C@@]1(C)CCC(=O)[C@@H](NC(=O)CCN3CCCCC3)[C@H]1O2 (relative stereo) [Example 12] | 46 |  |  | ~400
Cc1ccc2c(c1)[C@@]1(C)CCC(=O)[C@@H](NC(=O)CCN3CCNCC3)[C@H]1O2 (relative stereo) [Example 13, 8,9bβ-1,2,3,4,4aβ,9b-hexahydro-4α-[3-piperazinopropionamido]-dibenzofuran-3-one] | 75 |  |  | > 1000
CCOC(=O)N1CCN(CCC(=O)N[C@@H]2C(=O)CC[C@]3(C)c4cc(C)ccc4O[C@H]23)CC1 (relative stereo) [Example 14] | 33 |  |  | > 1000
Cc1ccc2c(c1)[C@@]1(C)CCC(=O)[C@@H](NC(=O)CCN3CCN(c4ccccc4)CC3)[C@H]1O2 (relative stereo) [Example 15] | 54 |  |  | 
Cc1ccc2c(c1)[C@@]1(C)CCC(=O)[C@@H](NC(=O)CCN3CCN(CCO)CC3)[C@H]1O2 (relative stereo) [Example 16] | 17 |  |  | 
Cc1ccc2c(c1)[C@@]1(C)CCC(=O)[C@@H](NC(=O)CCN3CCN(Cc4ccccc4)CC3)[C@H]1O2 (relative stereo) [Example 17] | 33 |  |  | > 1000
Cc1ccc2c(c1)[C@@]1(C)CCC(=O)[C@@H](NC(=O)CCN(C)CCN(C)C)[C@H]1O2 (relative stereo) [Example 18] | 50 |  |  | > 1000
CCN(CC)CCC(=O)N[C@@H]1C(=O)CC[C@]2(C)c3cc(C)ccc3O[C@H]12 (relative stereo) [Example 19] | 33 |  |  | 
CC(=O)N1CCN(CCC(=O)N[C@@H]2C(=O)CC[C@]3(C)c4cc(C)ccc4O[C@H]23)CC1 (relative stereo) [Example 20] | 33 |  |  | > 1000
CCN1CCN(CCC(=O)N[C@@H]2C(=O)CC[C@]3(C)c4cc(C)ccc4O[C@H]23)CC1 (relative stereo) [Example 21] |  |  |  | > 1000
Cc1ccc2c(c1)[C@@]1(C)CCC(=O)[C@@H](NC(=O)CCCN3CCN(C)CC3)[C@H]1O2 (relative stereo) [Example 22, 8,9bβ-dimethyl-1,2,3,4,4aβ,9b-hexahydro-4α-[4-(4-methylpiperazin-1-yl)-butyramido]-dibenzofuran-3-one] | 72 |  |  | 
Cc1ccc2c(c1)[C@@]1(C)CCC(=O)[C@@H](NC(=O)CCCN(C)C)[C@H]1O2 (relative stereo) [Example 23] | 67 |  |  | 
Cc1ccc2c(c1)[C@@]1(C)CCC(=O)[C@@H](NC(=O)CCCCN(C)C)[C@H]1O2 (relative stereo) [Example 24, 8,9bβ-dimethyl-1,2,3,4,4aβ,9b-hexahydro-4α-[5-N,N-dimethylamino-valeramido]-dibenzofuran-3-one] | 83 | 71 | important antitussive activity | 
Cc1ccc2c(c1)[C@@]1(C)CCC(=O)[C@@H](NC(=O)CCCCCN(C)C)[C@H]1O2 (relative stereo) [Example 25] | 25 |  |  | 
